Reference: PMC2967639 (Drug and alcohol dependence, 2010)

How the values were obtained:
[1] = system: male ICR mice; test: mouse tetrad assay; format: in vivo
[2] = blood and brain tissue concentrations of THC and CBC by GC/MS; format: in vivo, mouse
[3] = system: LPS-induced paw edema; test: LPS-induced paw edema model; format: in vivo, mouse; conditions: for LPS-induced paw edema (change in paw thickness of LPS-injected paw): i.p. 1 h before, 6 and 23 h after LPS, dose-response, measured 24 h, Figure 4A; for paw thickness of the LPS-injected paw, post hoc vs vehicle: 10, 30 and 100 mg/kg CBC, 10 and 30 mg/kg THC; for paw thickness of the saline-injected (contralateral) paw: data not shown; for effect of antagonist given alone on LPS paw edema: 3 mg/kg i.p. 30 min before each vehicle injection
[4] = target: CB1 receptor; conditions: ref Booker et al., 2009; cited from earlier work
[5] = ref Hunt et al., 1980; Widman et al., 1974; cited from earlier work
[6] = system: LPS-induced paw edema; conditions: ref Naidu et al., under review; cited from earlier work
[7] = system: wild type mice; conditions: i.v., ref Smith et al., 1994; cited from earlier work

Question: What does the source list for CCCCCc1cc(O)c2c(c1)OC(C)(CCC=C(C)C)C=C2 (centres unmarked) [CBC, cannabichromene]?
Answer: potency in the tetrad relative to THC ([1]; i.v.): substantially less potent than THC; effect of CBC on THC levels in brain ([2]; 30 or 100 mg/kg CBC i.v. with THC 0.3 mg/kg i.v.): significantly elevated; CBC levels in blood with increasing doses of CBC ([2]; CBC 3-100 mg/kg i.v., with or without THC 0.3 mg/kg, 30 min, Figure 3C): significant increases; CBC levels in brain with increasing doses of CBC ([2]; CBC 3-100 mg/kg i.v., with or without THC 0.3 mg/kg, 30 min, Figure 3D): significant increases; LPS-induced paw edema (change in paw thickness of LPS-injected paw) [3]: dose-related decreases; paw thickness of the LPS-injected paw, post hoc vs vehicle ([3]; i.p.): significant decreases; paw thickness of the saline-injected (contralateral) paw ([3]; i.p.): neither drug affected the paw thickness; Ki [4]: > 10 µM

Question: Which “THC in blood bound to plasma” value [5] does the source give for CCCCCc1cc(O)c2c(c1)OC(C)(C)[C@@H]1CCC(C)=C[C@@H]21 [THC, Δ^9-tetrahydrocannabinol] here?
Answer: The value was “About 90%”.

Question: What about the “THC in blood bound to red blood cells” value [5] of the same compound?
Answer: The value was 10%.

Question: And the “plasma THC bound to lipoproteins” value [5]?
Answer: Its value is 95 – 99%.

Question: What about the “activity in the tetrad at threshold dose” value ([1]; THC 0.3 mg/kg i.v.) of the same compound?
Answer: The value was “inactive”.

Question: What about the “effect of THC on CBC blood and brain levels” value ([2]; THC 0.3 mg/kg i.v. 10 min after CBC 3-100 mg/kg i.v.) of the same compound?
Answer: Its value is “no effects”.

Question: What about the “LPS-induced paw edema (change in paw thickness of LPS-injected paw)” value [3] of the same compound?
Answer: Its value is “dose-related decreases”.

Question: And the “paw thickness of the LPS-injected paw, post hoc vs vehicle” value ([3]; i.p.)?
Answer: The value was “significant decreases”.

Question: And the “paw thickness of the saline-injected (contralateral) paw” value ([3]; i.p.)?
Answer: The value was “neither drug affected the paw thickness”.

Question: What about the “ED50 (95% confidence intervals), LPS-induced paw edema” value ([3]; individual dose-response curves, i.p.) of the same compound?
Answer: Its value is 4.0 (2.7 to 5.9) mg/kg.

Question: With NC(=O)c1cccc(-c2cccc(OC(=O)NC3CCCCC3)c2)c1 [URB597] as the compound, how does the “effect on LPS induced paw edema” value [6] read?
Answer: The value was “ameliorated LPS induced paw edema”.

Question: For Cc1c(C(=O)c2cccc3ccccc23)c2cccc3c2n1[C@H](CN1CCOCC1)CO3 [WIN55,212-2], which “effect on LPS induced paw edema” value [6] is on record?
Answer: Its value is “ameliorated LPS induced paw edema”.

Question: Which “fold less potent in producing antinociception than hypomotility, catalepsy and hypothermia” value [7] does the source give for CCCCC/C=C\C/C=C\C/C=C\C/C=C\CCCC(=O)NCCO [anandamide] here?
Answer: Its value is 3 – 4 fold.

Question: Which “effect on LPS induced paw edema” value [6] does the source give for C[C@@H]1C[C@H]2[C@@H]3CCC4=CC(=O)C=C[C@]4(C)[C@@]3(F)[C@@H](O)C[C@]2(C)[C@@]1(O)C(=O)CO [dexamethasone] here?
Answer: The value was “ameliorated LPS induced paw edema”.

Question: With Cc1c(C(=O)NN2CCCCC2)nn(-c2ccc(Cl)cc2Cl)c1-c1ccc(Cl)cc1 [rimonabant] as the compound, how does the “blockade of the tetrad effects of CBC” value ([1]; rimonabant 3 mg/kg 10 min before CBC 100 mg/kg i.v.) read?
Answer: The value was “failed to block the pharmacological effects of CBC”.

Question: What about the “main effect of rimonabant on the four tetrad measures” value ([1]; rimonabant 3 mg/kg, 10 min before vehicle or CBC 100 mg/kg) of the same compound?
Answer: Its value is “no significant main effects”.

Question: What about the “effect of antagonist given alone on LPS paw edema” value [3] of the same compound?
Answer: The value was “Neither rimonabant nor SR144528 given alone affected LPS paw edema”.

Question: And the “antagonism of the anti-edematous effects of THC” value ([3]; antagonist 3 mg/kg 30 min before each THC 10 mg/kg i.p. injection, Figure 4B)?
Answer: The value was “but not rimonabant”.

Question: For SR144528, which “effect of antagonist given alone on LPS paw edema” value [3] is on record?
Answer: Its value is “Neither rimonabant nor SR144528 given alone affected LPS paw edema”.
